Results reported in patent US20260193180A1, “AUTOPHAGY INDUCING COMPOUNDS AND USES THEREOF” (SAMSARA THERAPEUTICS INC., priority 2022, published 2026).
Counter-ions that a name gives are not always drawn.

Assays:
[1] = system: Human osteosarcoma U2OS cells; test: Acidic vesicle formation (lysosome/autolysosome staining, LysoView 633 / LysoTracker Deep Red), stimulation of autophagy; format: cell-based; details: 24 hours; for activation at 10 µM: read-out: increase in acidic vesicle formation over the DMSO-treated control; for activation at 0.8 µM: read-out: Activity (percentage increase in acidic vesicle formation over the DMSO-treated control)
In short: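 U2OS cells treated with compound for 24 h, then stained 45 min at 37° C with 1× LysoView 633 or 50 nM LysoTracker Deep Red plus Hoechst nuclei. Live-cell fluorescence images (Cy5/DAPI) scored for acidic vesicle formation relative to DMSO control.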

[2] = system: C57BL/6JRj mice injured by intra-nigral injections of alpha-synuclein and CBE; test: Mouse model of Parkinson's disease (intra-nigral alpha-synuclein protofibrils plus CBE); format: in vivo; details: 30 mg/kg per os on the first day, then 10 mg/kg per os once a day; for bar test: decrease in the mean time required to cross the bar compared to the α-syn/CBE injured group / bar test: reduction in the mean number of steps required to cross the bar compared to the α-syn/CBE injured group / bar test: reduction in the number of misplaced steps (failed strides) compared to the α-syn/CBE injured group: week 3; for decrease in the aggregation of α-syn in TH neurons (α-syn area) compared to the α-syn/CBE injured group / grid walking test: increase in the total distance travelled during the test / grid walking test: reduction in the mean number of failures per meter (number of missed steps) / increase in the number of dopaminergic TH positive neurons in the SNpc compared to the α-syn/CBE injured group: week 4
From the text: This model (run by Neuro-Sys SAS, France) uses C57BL/6JRj mice injured by intra-nigral injections of a solution containing protofibrils of alpha-synuclein (α-syn, precisely quantified by automatic Western Blot) and combined with pharmacological inhibition of GBA by conduritol B epoxide (CBE), in aged mice. The model mimics the main pathologies of PD: loss of dopaminergic neurons in the substantia nigra, neuroinflammation, deficits in motor coordination and synucleinopathy (α-syn aggregation). Any substance with positive effects in this model may be useful as a new therapeutic agent for the treatment or prevention of PD.
• Type of animal: C57BL/6JRj (Male) • Age: 18 months old • Supplier: Janvier Labs • Animal number: 10 mice per group • Acclimation and clinical signs: Animals arrived on site 7 days (one week) before the experiment to allow optimal acclimation.
Overview: CBE was administered along with the test compounds, starting on the day of the stereotaxic injections of the α-syn oligomer preparation.
Test compounds at specific concentrations (see below) were administered per os (gavage or drinking water). • Test compound treatment: The test compounds were solubilized (vehicle=water), aliquoted and stored at −20° C. Aliquots were thawed overnight at 4° C. and given once a day. Treatment started on the day of the stereotaxic injections of α-syn preparation (Day 0). Treatment was administrated until the last day of the experiment (Day 28; =day of dissection). • CBE dose and administration: 50 mg/kg, Intraperitoneal (i.p.), twice a day. • CBE treatment: Administration of CBE (vehicle=saline [NaCl 0.9%] started on the day of the stereotaxic injections of α-syn preparation (Day 0). Treatment was administrated until the last day of the experiment (Day 28; =day of dissection), • Untreated control: vehicle (saline; i.p.) administered twice a day, • Stereotaxic injections of α-syn oligomers: Human α-syn peptide (stock at 69 μM in water at −20° C.) was reconstituted at 50 μM in NaCl, 0.9% (final concentration). All mice in compound treated groups were subjected to surgery and received 2.5 μL of α-syn solution. Mice were anesthetized by isoflurane (4%, for induction), in an induction chamber coupled with a vaporizer and to an oxygen concentrator. Mice were placed on the stereotaxic frame. Anesthesia was maintained by isoflurane (2%) with a face mask coupled to the isoflurane vaporizer and oxygen concentrator machine. The skull was exposed and holes were drilled. The α-syn preparation was bilaterally injected into the SNpc, at the following coordinates: A-P, −0.3 mm; M-L, +0.12 mm; D-V, −0.45 mm. Depth of anesthesia and rectal temperature were verified every 5 minutes. After surgery, mice were allowed to recover before being placed back in the cage.
• i) Body mass • ii) Assessment of motor coordination: bar test and grid walking test • iii) Dopaminergic Tyrosine hydroxylase (TH)-positive neuron survival in the substantia nigra pars compacta (SNpc), i.e. a measure of the number of TH neurons in the SNpc • iv) α-syn area in TH positive neurons (a measure of the degree of aggregation of α-syn in TH positive neurons, in the SNpc)
• Overall: For overall evaluation and body mass, mice were observed daily, and body mass was monitored prior to drug administration. • Assessment of motor coordination: bar test.
In the third week (Week 3) post-surgery, motor coordination of the mice was assessed with the bar test. The principle of the test is based on the capacity of the mice to cross a horizontal bar connected to a platform (18 mm of diameter, 60 cm long). The test requires good coordination between front and hindlimbs, and good balance. Mice are placed at one extremity of the bar and need to reach a platform located at the other side of the bar. Motor coordination was studied after two training sessions, one and two days before the test. Three sessions were recorded by a video camera system. […]

[3] = Bioavailability / brain exposure in CD1 mice; format: in vivo; details: dose of 30 mg/kg
Description: The compounds have good properties for oral dosing and readily cross the blood brain barrier. For example, in CD1 mice, Compound 9 has a maximum concentration in brain plasma of 5067 ng/ml after 30 minutes at a dose of 30 mg/kg. Compound 12 has a maximum concentration in brain plasma of 5853 ng/ml after 8 hours at a dose of 30 mg/kg.

[4] = system: U2OS cell line stabling expressing RFP-eGFP-hLC3b; test: Tandem reporter assay (autophagic flux), RFP-only puncta (autolysosomes); format: cell-based; details: Homo sapiens, read-out: Activity (Autolysosome % DMSO activity); for activity at 1.25 µM / activity at 0.5 µM: average of two runs
Description: Selected compounds of this invention were also assessed for their ability to stimulate autophagy using a U2OS cell line stabling expressing RFP-eGFP-hLC3b (a tandem reporter cell line). This assay is further described in WO 2023/089074.
LC3b is a protein found in the membrane of autophagosomes which has been used to generate genetic reporters of autophagy in cells. In these systems a tandem fusion of LC3b is engineered with two fluorescent proteins of different wavelengths: one which is acid sensitive (for example eGFP, which fluoresces green) and the other which is acid insensitive (for example RFP, which fluoresces red). Cells expressing RFP-eGFP-hLC3b can be examined using fluorescent microscopy: the autophagosomes present will fluoresce in both channels (either yellow in an overlay of both channels or puncta that are present in both the individual red and green channels) but the autolysosomes present will fluoresce in the RFP (red) channel only. Using a fluorescent microscope, the number of autophagosomes and autolysosomes can be counted, allowing for the monitoring of both the induction of autophagy (total puncta count) and the rate of autophagic flux (ratio of red-only to red-and-green puncta). The influence of small molecules on autophagy induction and flux can be assessed using this system by comparison to a non-treated control.
Representative Procedure: Human osteosarcoma U20S cells stably expressing RFP-eGFP-hLC3b were seeded (10,000 cells/well) into a 96-well glass-bottom plate (Cell Carrier Ultra, Perkin Elmer) in DMEM Glutamax media (Gibco) supplemented with 10% Fetal Bovine Serum (FBS) and antibiotics (100 μg/ml penicillin, 100 μg/ml streptomycin, Invitrogen), then incubated overnight in a humified atmosphere at 37° C. and 5% CO2. The cells were then treated with the compounds of interest, dissolved in DMSO, in a duplicated 5- or 10-point dose-response. 8 wells were treated with an equivalent volume of DMSO, 4 with 0.3 μM torin-1 as a positive control (MCE) and 4 wells with 0.4 μM torin-1 plus 0.2 μM bafilomycin (MCE) as a control for flux inhibition. The cells were returned to the incubator and the treatment continued for 24 hours. After treatment, the media was aspirated off and the cells fixed with a solution of 4% formaldehyde+1% glutaraldehyde (Sigma) in dPBS (plus magnesium and calcium, Gibco). Fixation was allowed to proceed for 15 minutes at room temperature then the fixative solution discarded and replaced with PBS (Gibco) plus Hoescht 33342 (1 μg/ml, Sigma). After 30 minutes the plates were imaged on an Opera Phenix confocal microscope (Perkin-Elmer) using a 40× water objective, collecting using DAPI, mCherry and GFP channels. Cells were detected based upon the staining of their nuclei with DAPI using the Harmony image analysis software (Perkin-Elmer) and the number of autophagosomes (GFP and RFP puncta) and autolysosomes (RFP only puncta) per cell were counted using the spot picking function within the software.

Compound: CCOc1ccc(CN2CC[C@H](CN)C2)cc1Cl.Cl [Compound 23, (R)-(1-(3-chloro-4-ethoxybenzyl)pyrrolidin-3-yl) methanamine hydrochloride]
- activation at 10 µM [1]: ≥ 25%
- bar test: decrease in the mean time required to cross the bar compared to the α-syn/CBE injured group [2]: 11%
- bar test: reduction in the mean number of steps required to cross the bar compared to the α-syn/CBE injured group [2]: 3%
- bar test: reduction in the number of misplaced steps (failed strides) compared to the α-syn/CBE injured group [2]: 39%
- decrease in the aggregation of α-syn in TH neurons (α-syn area) compared to the α-syn/CBE injured group [2]: 16%
- grid walking test: increase in the total distance travelled during the test [2]: 14%
- grid walking test: reduction in the mean number of failures per meter (number of missed steps) [2]: 14%
- increase in the number of dopaminergic TH positive neurons in the SNpc compared to the α-syn/CBE injured group [2]: 31%

Compound: CCOc1ccc(Cl)cc1CN1CCN[C@@H](C)C1.Cl [Compound 9, (S)-1-(5-chloro-2-ethoxybenzyl)-3-methylpiperazine hydrochloride]
- activation at 0.8 µM [1]: 10 to 30%
- activation at 10 µM [1]: ≥ 25%
- maximum concentration in brain plasma [3]: 5067 ng/mL
- time of maximum concentration in brain plasma [3]: 30 min

Compound: CCOc1ccc(CN2CC[C@@H](CN)C2)cc1Cl.Cl [Compound 30, (S)-(1-(3-chloro-4-ethoxybenzyl)pyrrolidin-3-yl)methanamine hydrochloride]
- activation at 0.8 µM [1]: > 100%
- activation at 10 µM [1]: ≥ 25%
- bar test: decrease in the mean time required to cross the bar compared to the α-syn/CBE injured group [2]: 25%
- bar test: reduction in the mean number of steps required to cross the bar compared to the α-syn/CBE injured group [2]: 7%
- bar test: reduction in the number of misplaced steps (failed strides) compared to the α-syn/CBE injured group [2]: 19%
- decrease in the aggregation of α-syn in TH neurons (α-syn area) compared to the α-syn/CBE injured group [2]: 30%
- grid walking test: increase in the total distance travelled during the test [2]: 36%
- grid walking test: reduction in the mean number of failures per meter (number of missed steps) [2]: 28%
- increase in the number of dopaminergic TH positive neurons in the SNpc compared to the α-syn/CBE injured group [2]: 57%

Compound: NC1CCN(Cc2ccc(OCC3CC3)c(Cl)c2)CC1 [Compound 81, 1-(3-chloro-4-(cyclopropylmethoxy)benzyl)piperidin-4-amine hydrochloride]
- activity at 1.25 µM [4]: 150 to 200%

Compound: N[C@@H]1CCCN(CCc2ccc(OCC3CC3)c(Cl)c2)C1 [Compound 80, (R)-1-(3-chloro-4-(cyclopropylmethoxy)phenethyl)piperidin-3-amine formate salt]
- activity at 1.25 µM [4]: 250 to 300%

Compound: NC1CCN(Cc2cc(Cl)c(OCC3CC3)c(Cl)c2)CC1 [Compound 98, 1-{[3,5-dichloro-4-(cyclopropylmethoxy)phenyl]methyl}-4-piperidylamine hydrochloride]
- activity at 1.25 µM [4]: 150 to 200%

Compound: COCCOc1c(Cl)cc(CCN2CCC[C@@H](N)C2)cc1Cl [Compound 76, (R)-1-(3,5-dichloro-4-(2-methoxyethoxy)phenethyl)piperidin-3-amine hydrochloride]
- activity at 0.5 µM [4]: 150 to 200%

Compound: COCCOc1ccc(CCN2CCC[C@@H](N)C2)cc1Cl [Compound 89, (R)-1-{2-[3-chloro-4-(2-methoxyethoxy)phenyl]ethyl}-3-piperidylamine hydrochloride]
- activity at 1.25 µM [4]: 150 to 200%

Compound: COCCOc1ccc(CN2CCC(N)CC2)cc1Cl [Compound 95, 1-{[3-chloro-4-(2-methoxyethoxy)phenyl]methyl}-4-piperidylamine hydrochloride]
- activity at 1.25 µM [4]: 200 to 250%

Compound: CCOc1c(Cl)cc(CN2CC[C@@H](CN)C2)cc1Cl [Compound 70, (S)-(1-(3,5-dichloro-4-ethoxybenzyl)pyrrolidin-3-yl)methanamine hydrochloride]
- activity at 0.75 µM ([4]; 0.75 μM, one run): 150 to 200%

Compound: N[C@@H]1CCCN(CCc2cc(Cl)c(OCC3CC3)c(Cl)c2)C1 [Compound 78, (R)-1-(3,5-dichloro-4-(cyclopropylmethoxy)phenethyl)piperidin-3-amine hydrochloride]
- activity at 1.25 µM [4]: 200 to 250%

Compound: N[C@H]1CCN(CCc2ccc(OCC3CC3)c(Cl)c2)C1 [Compound 100, (S)-1-{2-[3-chloro-4-(cyclopropylmethoxy)phenyl]ethyl}-3-pyrrolidinylamine hydrochloride]
- activity at 1.25 µM [4]: 150 to 200%

Compound: COCCOc1c(Cl)cc(CCN2CCC[C@H](N)C2)cc1Cl [Compound 72, (S)-1-(3,5-dichloro-4-(2-methoxyethoxy)phenethyl)piperidin-3-amine hydrochloride]
- activity at 0.5 µM [4]: 150 to 200%

Compound: CCOc1ccc(C#N)cc1CCN1CCC[C@@H](N)C1 [Compound 84, (R)-3-(2-(3-aminopiperidin-1-yl)ethyl)-4-ethoxy benzonitrile hydrochloride]
- activity at 1.25 µM [4]: 200 to 250%
